In ChEMBL document CHEMBL3124775 (Bioorg Med Chem, 2014) one finds Ki data, which are given here for 28 compounds.

One assay concerns the target Carbonic anhydrase 9 (Homo sapiens, UniProt Q16790).
The next assay addresses Carbonic anhydrase 12 (Homo sapiens, UniProt O43570).
The target in another assay is Carbonic anhydrase 1 (Homo sapiens, UniProt P00915). As to the kind of experiment: Inhibition of human carbonic anhydrase 1 by stopped-flow CO2 hydrase assay.
A further assay has as its target Carbonic anhydrase 2 (Homo sapiens, UniProt P00918). The assay can be described thus: Inhibition of human carbonic anhydrase 2 by stopped-flow CO2 hydrase assay.

Carbonic anhydrase 12, sequence (O43570 whole entry): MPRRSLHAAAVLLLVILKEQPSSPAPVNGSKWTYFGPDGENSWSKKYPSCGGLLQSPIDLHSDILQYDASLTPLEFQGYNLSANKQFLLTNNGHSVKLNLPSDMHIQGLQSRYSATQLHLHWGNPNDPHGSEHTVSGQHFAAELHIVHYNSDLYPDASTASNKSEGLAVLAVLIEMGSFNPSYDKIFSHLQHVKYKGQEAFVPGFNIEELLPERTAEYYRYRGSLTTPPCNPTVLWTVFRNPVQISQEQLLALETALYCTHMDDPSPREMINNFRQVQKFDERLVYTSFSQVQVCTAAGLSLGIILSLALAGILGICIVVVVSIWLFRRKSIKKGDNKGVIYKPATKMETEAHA
Carbonic anhydrase 1, sequence (P00915 whole entry): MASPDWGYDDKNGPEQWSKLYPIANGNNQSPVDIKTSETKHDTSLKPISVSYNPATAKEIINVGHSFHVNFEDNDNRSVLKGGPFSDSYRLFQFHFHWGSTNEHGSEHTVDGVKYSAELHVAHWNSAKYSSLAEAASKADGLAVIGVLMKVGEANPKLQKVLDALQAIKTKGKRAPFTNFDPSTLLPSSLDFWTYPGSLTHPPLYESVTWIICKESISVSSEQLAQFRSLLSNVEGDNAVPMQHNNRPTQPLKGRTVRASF
Description for Carbonic anhydrase 12: Inhibition of human carbonic anhydrase 12 by stopped-flow CO2 hydrase assay
Description for Carbonic anhydrase 9: Inhibition of human carbonic anhydrase 9 by stopped-flow CO2 hydrase assay

The term Ki denotes the dissociation constant of the complex between target and ligand, obtained from inhibition or displacement. A low value points to a stronger hold on the target. On to `O=C(CN1C(=O)c2ccccc2S1(=O)=O)c1ccccc1[N+](=O)[O-]`, for which the Ki at Carbonic anhydrase 9 was more than 50000 nM; at Carbonic anhydrase 12, 970 nM; on Carbonic anhydrase 1, more than 50000 nM; at Carbonic anhydrase 2, more than 50000 nM.
Regarding `N#CCN1C(=O)c2ccccc2S1(=O)=O`, the Ki at Carbonic anhydrase 9 was 290 nM; on Carbonic anhydrase 12, 710 nM; on Carbonic anhydrase 1, more than 50000 nM; at Carbonic anhydrase 2, more than 50000 nM.
As to `O=C(CN1C(=O)c2ccccc2S1(=O)=O)c1ccccc1`, the Ki on Carbonic anhydrase 9 was more than 50000 nM; at Carbonic anhydrase 12 it was 1780 nM; on Carbonic anhydrase 1, more than 50000 nM; on Carbonic anhydrase 2, more than 50000 nM.
For `N#Cc1ccc(CN2C(=O)c3ccccc3S2(=O)=O)cc1`, the values for the Ki on Carbonic anhydrase 9, at Carbonic anhydrase 12 and at Carbonic anhydrase 1 were 240 nM, 150 nM and more than 50000 nM, respectively.
The corresponding values for `C/C=C/CN1C(=O)c2ccccc2S1(=O)=O` are 97 nM, 210 nM and more than 50000 nM.
In the case of `C/C(CN1C(=O)c2ccccc2S1(=O)=O)=N\O` (mixture of isomers), the Ki on Carbonic anhydrase 9 is 270 nM; on Carbonic anhydrase 12 it was 240 nM; at Carbonic anhydrase 1 it was more than 50000 nM.
The corresponding values for `O=C1c2ccccc2S(=O)(=O)N1Cc1c(F)cccc1F` are more than 50000 nM, 1310 nM and more than 50000 nM.
Take `O=C1c2ccccc2S(=O)(=O)N1Cc1cc(-c2ccc([N+](=O)[O-])cc2)no1`: the Ki was 310 nM at Carbonic anhydrase 9, more than 50000 nM on Carbonic anhydrase 1 and more than 50000 nM on Carbonic anhydrase 2.
Take `O=C1c2ccccc2S(=O)(=O)N1Cc1ccccc1Br`: the results for the Ki on Carbonic anhydrase 9, at Carbonic anhydrase 12 and on Carbonic anhydrase 1 were more than 50000 nM, 25.1 nM and more than 50000 nM, respectively.
As for `CNC(=O)CN1C(=O)c2ccccc2S1(=O)=O`, the Ki at Carbonic anhydrase 9 was 200 nM; on Carbonic anhydrase 12, 28.4 nM; at Carbonic anhydrase 1, more than 50000 nM; at Carbonic anhydrase 2, 38.1 nM.
Take `CC(=O)CN1C(=O)c2ccccc2S1(=O)=O`: the Ki at Carbonic anhydrase 9 was 150 nM; at Carbonic anhydrase 12, 440 nM; on Carbonic anhydrase 1, more than 50000 nM.
Consider `O=C1c2ccccc2S(=O)(=O)N1Cc1ccc(Cl)c(Cl)c1`, for which the Ki at Carbonic anhydrase 9 is 390 nM; on Carbonic anhydrase 12, 2760 nM; on Carbonic anhydrase 1, more than 50000 nM; on Carbonic anhydrase 2, more than 50000 nM.
With `O=C(CN1C(=O)c2ccccc2S1(=O)=O)c1cccc([N+](=O)[O-])c1`, the Ki at Carbonic anhydrase 9 was more than 50000 nM; on Carbonic anhydrase 12, 2010 nM; on Carbonic anhydrase 1, more than 50000 nM; on Carbonic anhydrase 2, more than 50000 nM.
With `N#CCCCN1C(=O)c2ccccc2S1(=O)=O`, the Ki at Carbonic anhydrase 9 was 290 nM; at Carbonic anhydrase 12, more than 50000 nM; on Carbonic anhydrase 1, more than 50000 nM.
As for `O=C1c2ccccc2S(=O)(=O)N1Cc1cccc(F)c1`, the inhibition constant (Ki) on Carbonic anhydrase 9 was 380 nM; on Carbonic anhydrase 12, 2690 nM; on Carbonic anhydrase 1 it was more than 50000 nM.
The corresponding values for `C#CCN1C(=O)c2ccccc2S1(=O)=O` are 210 nM, 570 nM and more than 50000 nM.
The corresponding values for `O=C1c2ccccc2S(=O)(=O)N1Cc1ccccc1[N+](=O)[O-]` are 91 nM, 28.1 nM and more than 50000 nM.
The corresponding values for `C=CCN1C(=O)c2ccccc2S1(=O)=O` are 140 nM, 94 nM and more than 50000 nM.
For `O=C1c2ccccc2C(=O)N1CN1C(=O)c2ccccc2S1(=O)=O`, the Ki was more than 50000 nM on Carbonic anhydrase 9, 13400 nM on Carbonic anhydrase 12, more than 50000 nM at Carbonic anhydrase 1 and more than 50000 nM at Carbonic anhydrase 2.
On to `O=C1c2ccccc2S(=O)(=O)N1Cc1ccccc1F`, for which the Ki on Carbonic anhydrase 9 is more than 50000 nM; on Carbonic anhydrase 12, 2520 nM; at Carbonic anhydrase 1, more than 50000 nM; at Carbonic anhydrase 2, more than 50000 nM.
For `O=C1c2ccccc2S(=O)(=O)N1Cc1cccc(Br)c1`, the Ki at Carbonic anhydrase 9 is 360 nM; on Carbonic anhydrase 12 it was 21.1 nM; at Carbonic anhydrase 1 it was more than 50000 nM.
Regarding `O=C(O)CN1C(=O)c2ccccc2S1(=O)=O`, the Ki was 310 nM at Carbonic anhydrase 9, 41.9 nM at Carbonic anhydrase 12, more than 50000 nM on Carbonic anhydrase 1 and more than 50000 nM on Carbonic anhydrase 2.
For `O=C1c2ccccc2S(=O)(=O)N1CC(O)COc1ccc(Cl)cc1` (stereo unspecified), the Ki was 230 nM on Carbonic anhydrase 9, 2910 nM at Carbonic anhydrase 12, more than 50000 nM on Carbonic anhydrase 1 and 1800 nM at Carbonic anhydrase 2.
The corresponding values for `O=S1(=O)N=C(OCc2cccc(Br)c2)c2ccccc21` are more than 50000 nM, more than 50000 nM, more than 50000 nM and more than 50000 nM.
The corresponding values for `O=C1c2ccccc2S(=O)(=O)N1Cc1cccc2ccccc12` are more than 50000 nM, 2540 nM, more than 50000 nM and more than 50000 nM.
For `CCOC(=O)CN1C(=O)c2ccccc2S1(=O)=O`, the Ki was 330 nM at Carbonic anhydrase 9, 76.5 nM on Carbonic anhydrase 12 and more than 50000 nM on Carbonic anhydrase 1.
`O=C1c2ccccc2S(=O)(=O)N1Cc1cccc([N+](=O)[O-])c1`: the inhibitory constant (Ki) was 24.6 nM on Carbonic anhydrase 12 and more than 50000 nM on Carbonic anhydrase 1.
For the compound `O=[N+]([O-])c1ccccc1CNS(=O)(=O)c1ccccc1CO`, the Ki was more than 50000 nM on Carbonic anhydrase 9, 250 nM on Carbonic anhydrase 12, more than 50000 nM on Carbonic anhydrase 1 and more than 50000 nM on Carbonic anhydrase 2.
